Where two headings read alike, the source gives them in different places.
Assays:
[1] = test system: isolated rabbit thoracic aorta preparations; assay: Studies on vascular tone: vasorelaxation of noradrenaline-precontracted aortic rings; format: cell-based; conditions: rabbit aortic rings precontracted with noradrenaline 1 μM; for IC50: functional endothelium, read-out: IC50 (μM) ± sem (vasorelaxation)
Procedure: The ability of the nitroderivatives of ARB to induce vasorelaxation in comparison to native ARB, was tested in vitro in isolated rabbit thoracic aorta preparations (Wanstall J. C. et al., Br. J. Pharmacol., 134:463-472, 2001). Male New Zealand rabbits were anaesthetized with thiopental-Na (50 mg/kg, iv), sacrificed by exsanguinations and then the thorax was opened and the aorta dissected. Aortic ring preparations (4 mm in length) were set up in physiological salt solution (PSS) at 37° C. in small organ chambers (5 ml). The composition of PSS was (mM): NaCl 130, NaHCO3 14.9, KH2PO4 1.2, MgSO4 1.2, HEPES 10, CaCl2, ascorbic acid […] and glucose 1.1 (95% O2/5% CO2; pH 7.4). Each ring was mounted under 2 g passive tension. Isometric tension was recorded with a Grass transducer (Grass FT03) attached to a BIOPAC MP150 System. Preparations were allowed to equilibrate for 1 h, and then contracted submaximally with noradrenaline (NA, 1 μM) and, when the contraction was stable, acetylcholine (ACh, 10 μM) was added. A relaxant response to ACh indicated the presence of a functional endothelium. […] When a stable precontraction was reached, a cumulative concentration-response curve to either of the vasorelaxant agents was obtained in the presence of a functional endothelium. Each arterial ring was exposed to only one combination of inhibitor and vasorelaxant. Moreover, the effect of the soluble guanylyl cyclase inhibitor ODQ (1-H-(1,2,4)-oxadiazol(4,3-a)quinoxalin-1-one) on vasorelaxation elicited by the compounds was examined preincubating the aortic rings with ODQ (10 μM) for 20 min.
Responses to relaxing agents are expressed as a percentage of residual contraction and plotted against concentration of test compound. IC50 values (where IC50 is the concentration producing 50% of the maximum relaxation to the test compound) were interpolated from these plots.
During the experimental period, the plateau obtained with NA was stable without significant spontaneous loss of contraction in the aortic rings.

human platelets = assay: Antiplatelet activity: U46619-induced platelet aggregation in platelet rich plasma (Born method); format: cell-based; conditions: 2 min, human PRP, aggregating agent U46619, incubation 2 min at 37° C., read-out: Platelet aggregation (PRP) (incubation time: 2 min) IC50
Procedure: Aggregating agent used was U46619, a TxA2 analog, based on the evidence that this agonist is sensitive to the effects of nitric oxide. Compounds were incubated at 37° C. for 2 min before adding the aggregating agent. Aggregation was followed for 5 min and the maximal amplitude (cm) was measured. DMSO (0.05% final concentration) was used as vehicle. Compounds were tested at concentrations ranging from 10 to 100 μM.

RAW 264.7 macrophages = assay: Inhibition of LPS-induced nitrite accumulation (Griess reaction); format: cell-based; conditions: for Nitrite (% vs vehicle): 25 μM, LPS 1 μg/ml for 16 hrs, RAW 264.7
Procedure: The experiments were performed using RAW 264.7 monocyte macrophage cell line. Cells were stimulated in the presence of lipopolysaccharide (LPS) (1 μg/ml) for 16 hrs. At the end of the incubation, the culture media were collected and analyzed for nitrite content using a standard Griess reaction.
The results reported in Table 2 are expressed as % of nitrite content for each treatment vs. LPS-treated samples.

[2] = test system: spontaneously hypertensive rats (SHRs); assay: Antihypertensive activity in conscious spontaneously hypertensive rats (telemetry); format: in vivo; conditions: SHR; for Systolic blood pressure (mmHg), 30 min: 30 min after dosing; for Systolic blood pressure (mmHg), 30 min / Systolic blood pressure (mmHg), 12 hrs / Systolic blood pressure (mmHg), 24 hrs: losartan 10 mg/kg po, EX. 2 12 mg/kg po (equimolar); for Systolic blood pressure (mmHg), 12 hrs: 12 hrs after dosing; for Systolic blood pressure (mmHg), 24 hrs: 24 hrs after dosing; for Systolic blood pressure (mmHg), Baseline: groups losartan 10 mg/kg po, EX. 2 12 mg/kg po
Excerpt: Systolic blood pressure (SBP) and heart rate were monitored by telemetry at different time points after dosing.

| IC50 ([1]; Oryctolagus cuniculus) [µM] | IC50 (human platelets) [µM] | SMILES | Nitrite (% vs vehicle) (RAW 264.7 macrophages) | inhibition of accumulation of nitrites induced by LPS (in words) (RAW 264.7 macrophages; RAW 264.7, LPS) | Systolic blood pressure (mmHg), 30 min ([2]; daily oral dose for 3 days) [mmHg] | Systolic blood pressure (mmHg), 12 hrs ([2]; daily oral dose for 3 days) [mmHg] | Systolic blood pressure (mmHg), 24 hrs ([2]; daily oral dose for 3 days) [mmHg] | Systolic blood pressure (mmHg), Baseline [2] [mmHg] | reduction in blood pressure levels over the treatment period (in words) ([2]; daily oral dose for 3 days) | IC50 [1] [µM] | relaxation of aortic rings (in words) [1] |
| --- | --- | --- | --- | --- | --- | --- | --- | --- | --- | --- | --- |
| 33 ± 12 | 5 | CCCCc1nc(Cl)c(COC(=O)c2ccc(CO[N+](=O)[O-])cc2)n1Cc1ccc(-c2ccccc2-c2nn[nH]n2)cc1 [EX. 1, 2-butyl-4-chloro-1-[[2′-(1H-tetrazol-5-yl)[1,1′-biphenyl]-4-yl]methyl]-1H-imidazole-5-methanol 4-(nitrooxymethyl) benzoic acid ester] |  |  |  |  |  |  |  |  |  |
| 54 ± 16 |  | CCCCc1nc(Cl)c(COC(=O)c2cccc(CO[N+](=O)[O-])c2)n1Cc1ccc(-c2ccccc2-c2nn[nH]n2)cc1 [EX. 4, 2-butyl-4-chloro-1-[[2′-(1H-tetrazol-5-yl)[1,1′-biphenyl]-4-yl]methyl]-1H-imidazole-5-methanol 3-(nitrooxymethyl) benzoic acid ester] | 61 ± 3 | able to inhibit the accumulation of nitrites induced by LPS |  |  |  |  |  |  |  |
| 15 ± 3 | 11 | CCCCc1nc(Cl)c(COC(=O)CCCO[N+](=O)[O-])n1Cc1ccc(-c2ccccc2-c2nn[nH]n2)cc1 [EX. 2, 2-butyl-4-chloro-1-[[2′-(1H-tetrazol-5-yl)[1,1′-biphenyl]-4-yl]methyl]-1H-imidazole-5-methanol 4-nitrooxybutanoic acid ester] |  |  | 115 | 126 | 128 | 143 | able to induce a clear reduction in blood pressure levels |  |  |
|  |  | CCCCc1nc(Cl)c(COC(=O)CCCCCO[N+](=O)[O-])n1Cc1ccc(-c2ccccc2-c2nnn[nH]2)cc1 [EX. 5, 2-butyl-4-chloro-1-[[2′-(H-tetrazol-5-yl)[1,1′-biphenyl]-4-yl]methyl]-1H-imidazole-5-methanol 6-nitrooxyhexanoic acid ester] |  |  |  |  |  |  |  | 18 ± 6 |  |
| > 100 |  | CCCCc1nc(Cl)c(CO)n1Cc1ccc(-c2ccccc2-c2nn[nH]n2)cc1 [Losartan, reference compound] | 99 ± 9 |  | 133 | 135 | 136 | 143 |  |  | did not produce relaxation at any of the concentration tested |

Source: patent US20060276523A1 (priority 2003, published 2006)
